In patent publication US10092584B2 (Achillion Pharmaceuticals, Inc., priority 2015, dated 2018):
Like-named read-outs stand apart in the source and are kept apart here.

Molecular target: T1, Human Factor D (Homo sapiens, UniProt P00746)
T1 construct: purified from human serum; purchased Complement Technology, Inc; host or cells: human serum
Test: Human Factor D assay (Example 8)
Format: biochemical
Outline: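 IC50 values derive from nonlinear regression of Factor D reaction rates against compound concentration. The enzyme, purified from human serum, is used at 80 nM final with a 5 min room-temperature compound preincubation in 50 mM Tris, 1M NaCl, pH 7.5, before 100 μM Z-L-Lys-SBzl plus 100 μM DTNB are added.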

[1] = Table 3, Human Factor D 80 nM, substrate Z-L-Lys-SBzl, read-out: IC50 (Stars)
[2] = Table 1, Human Factor D 80 nM, substrate Z-L-Lys-SBzl, read-out: IC50

T1 sequence (P00746 26-253): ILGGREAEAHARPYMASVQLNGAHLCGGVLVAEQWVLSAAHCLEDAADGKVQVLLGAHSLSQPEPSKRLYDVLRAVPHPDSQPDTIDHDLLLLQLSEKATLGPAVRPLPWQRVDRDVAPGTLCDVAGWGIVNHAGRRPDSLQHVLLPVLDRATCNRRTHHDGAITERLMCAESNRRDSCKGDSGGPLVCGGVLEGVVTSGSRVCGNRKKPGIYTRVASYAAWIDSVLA

For `CC(=O)c1cn(CC(=O)N2C[C@H](F)[C@@H](OCC3CC3)[C@H]2C(=O)NCc2cccc(Cl)c2F)c2cc(O)ccc12` [Compound 21, (2S,3S,4S)-1-(2-(3-acetyl-6-hydroxy-1H-indol-1-yl)acetyl)-N-(3-chloro-2-fluorobenzyl)-3-(cyclopropylmethoxy)-4-fluoropyrrolidine-2-carboxamide], the IC50 was < 1 µM.
For `NC(=O)c1cn(CC(=O)N2CCS[C@H]2C(=O)Nc2cccc(-c3ccccc3Cl)c2F)c2ccccc12` [Compound 375, (S)-3-(2-(3-carbamoyl-1H-indol-1-yl)acetyl)-N-(2′-chloro-2-fluoro-[1,1′-biphenyl]-3-yl)thiazolidine-2-carboxamide], the IC50 [1] was < 1 µM.
In the case of `CC(=O)c1nn(CC(=O)N2C[C@H](F)C[C@H]2C(=O)Nc2cccc(-c3ccc4c(c3)CNC4)c2F)c2ccccc12` [Compound 439, (2S,4R)-1-(2-(3-Acetyl-1H-indazol-1-yl)acetyl)-4-fluoro-N-(2-fluoro-3-(isoindolin-5-yl)phenyl)pyrrolidine-2-carboxamide], the IC50 [1] is reported as < 1 µM.
In the case of `O=C(O)CCC(=O)N1CCc2c(n(CC(=O)N3C[C@H](F)C[C@H]3C(=O)NCc3cccc(Cl)c3F)c3ccccc23)C1` [Compound 72, 4-(9-(2-((2S,4R)-2-(3-chloro-2-fluorobenzylcarbamoyl)-4-fluoropyrrolidin-1-yl)-2-oxoethyl)-3,4-dihydro-1H-pyrido[3,4-b]indol-2(9H)-yl)-4-oxobutanoic acid], the IC50 [2] is reported as > 10 µM.
With `NC(=O)c1nn(CC(=O)N2C[C@H](O)C[C@H]2C(=O)Nc2cccc(-c3ccccc3Cl)c2F)c2ccccc12` [Compound 336, 1-(2-((2S,4R)-2-((2′-chloro-2-fluoro-[1,1′-biphenyl]-3-yl)carbamoyl)-4-hydroxypyrrolidin-1-yl)-2-oxoethyl)-1H-indazole-3-carboxamide] the IC50 [1] was < 1 µM.
`NC(=O)c1nn(CC(=O)N2C[C@H](F)C[C@H]2C(=O)Nc2cccc(-c3cc(F)c(F)cc3Cl)c2F)c2ccc(Br)cc12` [Compound 319, 5-bromo-1-(2-((2S,4R)-2-((2′-chloro-2,4′,5′-trifluoro-[1,1′-biphenyl]-3-yl)carbamoyl)-4-fluoropyrrolidin-1-yl)-2-oxoethyl)-1H-indazole-3-carboxamide] was tested, and the IC50 [1] was < 1 µM.
With `NC(=O)c1nn(CC(=O)N2C[C@@H](F)C[C@H]2C(=O)Nc2cccc(-c3ccccc3Cl)c2F)c2ccccc12` [Compound 352, 1-(2-((2S,4S)-2-((2′-chloro-2-fluoro-[1,1′-biphenyl]-3-yl)carbamoyl)-4-fluoropyrrolidin-1-yl)-2-oxoethyl)-1H-indazole-3-carboxamide] the IC50 [1] was < 1 µM.
`NC(=O)c1nc(CC(=O)N2C[C@H](F)C[C@H]2C(=O)Nc2cccc(-c3ccccc3Cl)c2F)n2ccccc12` [Compound 373, 3-(2-((2S,4R)-2-((2′-Chloro-2-fluoro-[1,1′-biphenyl]-3-yl)carbamoyl)-4-fluoropyrrolidin-1-yl)-2-oxoethyl)imidazo[1,5-a]pyridine-1-carboxamide] was tested, and the IC50 [1] was < 1 µM.
`NC(=O)c1nn(CC(=O)N2C[C@H](F)C[C@H]2C(=O)Nc2cccc(-c3c(F)cc(F)cc3Cl)n2)c2cnccc12` [Compound 100, 1-(2-((2S,4R)-2-(6-(2-chloro-4,6-difluorophenyl)pyridin-2-ylcarbamoyl)-4-fluoropyrrolidin-1-yl)-2-oxoethyl)-1H-pyrazolo[3,4-c]pyridine-3-carboxamide] was tested, and the IC50 [2] was < 1 µM.
`COC(=O)c1cccc(NC(=O)[C@@H]2C[C@@H](F)CN2C(=O)Cn2nc(C(N)=O)c3ccccc32)c1F` [Compound 345, methyl 3-((2S,4R)-1-(2-(3-carbamoyl-1H-indazol-1-yl)acetyl)-4-fluoropyrrolidine-2-carboxamido)-2-fluorobenzoate] was tested, and the IC50 [1] was < 1 µM.
In the case of `C=C(F)c1nn(CC(=O)N2C[C@H](F)C[C@H]2C(=O)NCc2cccc(Cl)c2F)c2cnccc12` [Compound 74, (2S,4R)-N-(3-chloro-2-fluorobenzyl)-4-fluoro-1-(2-(3-(1-fluorovinyl)-1H-pyrazolo[3,4-c]pyridin-1-yl)acetyl)pyrrolidine-2-carboxamide], the IC50 [2] is reported as < 1 µM.
